# Laboratory results taken from patent US20170165286A1, “COMPOSITIONS AND METHODS FOR TREATING DIABETES AND LIVER DISEASES” (Cempra Pharmaceuticals, Inc., priority 2014, published 2017).
# “Also recorded” adds a separate entry of the source. Like-named read-outs stand apart in the source and are kept apart here.
# Columns and labels:
# [1] = Phase 1 study in subjects with hepatic impairment: pharmacokinetics and protein binding; type: in vivo, humans; parameters: AUC(0-t): concentration or dose not given beside the values; conditions: for AUC0-t Geometric Mean Ratio (%) (test/reference) / AUC0-tau Geometric Mean Ratio (%) (test/reference) / Cmax Geometric Mean Ratio (%) (test/reference) / AUC(0-t) / AUC / Cmax: Day 5; for AUC(0-t) / AUC / Cmax / half-life: human, plasma
# Description: Safety and Pharmacokinetics of solithromycin in Subjects with Hepatic Impairment. The safety, pharmacokinetics (PK), and protein binding of solithromycin was evaluated in subjects with mild, moderate, and severe hepatic impairment compared to healthy subjects with normal hepatic function (matched for age, weight, and gender). The evaluation was performed in a Phase 1, open-label, multiple-dose study in subjects with mild (Child-Pugh Class A), moderate (Child-Pugh Class B), and severe (Child-Pugh Class C) hepatic impairment and healthy matched control subjects with normal hepatic function. All subjects received a once-daily dose of 800 mg on Day 1 followed by 400 mg on Days 2 through 5.
# PK parameters on Day 5 were compared between the hepatic impaired cohorts and the control group, and geometric mean ratios were calculated.
# [2] = Absorption, metabolism and excretion of orally administered solithromycin; type: in vivo; conditions: oral
# Description: Macrolide antibiotics, like solithromycin, are primarily metabolized and excreted through liver-dependent mechanisms; this study evaluated the safety and PK of solithromycin in patients with chronic liver disease. It has been observed that approximately 78% of orally administered solithromycin is absorbed. Less than 15% unchanged solithromycin is excreted in the feces. It has also been observed that ˜70% of orally administered solithromycin is metabolized and excreted by the liver. Accordingly, high liver concentrations are observed. No dosage adjustment is needed when administering solithromycin to patients with mild, moderate, or severe hepatic impairment.
# STAM mice = experiment: STAM model: liver immunohistochemistry (F4/80, Gr-1, CK-18); type: in vivo; conditions: for F4/80-positive area (%) a measure of macrophage density: STAM mice liver
# Description: NASH-HCC (STAM™) Model. C57BL/6 (15-day-pregnant female) mice are obtained from Charles River Laboratories Japan (Kanagawa, Japan). Male pups are selected for the study. NASH is induced in male mice by a single subcutaneous injection of 200 μg streptozotocin (STZ, Sigma-Aldrich, USA) solution 2 days after birth, followed by feeding a HFD (57 kcal % fat, cat#: HFD32, CLEA Japan, Japan) beginning at 4 weeks of age. At 5 weeks of age, mice are divided into a control group and one or more treated group (generally 8 mice per group). Animals are sacrificed at 9 weeks of age, and biochemical, histological, and gene expression analyses are performed.
# During weeks 5-9 (starting at day 35±2), test compound is administered (generally orally) at various doses diluted to 10 mL/kg and according to various dosing protocols to treatment groups (8 mice each) while a second group (8 mice) is administered vehicle only. Animals are sacrificed at 9 weeks.
# For immunohistochemistry (a measure of inflammation), sections are cut from frozen liver tissues embedded in Tissue-Tek O.C.T. compound and fixed in acetone. Endogenous peroxidase activity is blocked using 0.03% H2O2 for 5 minutes, followed by incubation with Block Ace (Dainippon Sumitomo Pharma, Japan) for 10 minutes. The sections were incubated with a 200-fold dilution of anti-F4/80 antibody (BMA Biomedicals, Switzerland), a 50-fold dilution of anti-CK-18 antibody (LifeSpan BioSciences, USA) or anti-Gr-1 antibody (culture supernatant) over night at 4° C. F4/80 is a marker for macrophage and Kupffer cells in the liver; CK-18 antibody measures the cytoskeleton in damaged hepatocytes; and anti-Gr-1 antibody measures the neutrophil response. After incubation with secondary antibody (HRP-Goat anti-rat antibody, Invitrogen, USA), enzyme-substrate reactions are performed using 3, 3′-diaminobenzidine/H2O2 solution (Nichirei, Japan).
# For quantitative analysis of fibrosis area, bright field images of Sirius red-stained sections are captured around the central vein using a digital camera (DFC280; Leica, Germany) at 200-fold magnification, and the positive areas in 5 fields/section are measured using ImageJ software (National Institute of Health, USA). For quantitative analysis of inflammation area, bright field images of F4/80-immunostained sections are captured around the central vein using a digital camera (DFC280; Leica, Germany) at 200-fold magnification, and the positive areas in 5 fields/section are measured using ImageJ software (National Institute of Health, USA).
# Illustrative dose response test groups. Group 1-Normal. Eight normal mice are fed with a normal diet ad libitum without any treatment until 9 weeks of age. Group 2-Vehicle. Eight NASH mice are orally administered vehicle (0.5% w/v methylcellulose+0.2% Tween®80) in a volume of 10 mL/kg twice daily from 5 to 9 week of age. Group 3-solithromycin 5 mg/kg. Eight NASH mice are orally administered vehicle supplemented with solithromycin at a dose of 5 mg/kg in the morning and the vehicle in the evening (5 mg/kg/day) from 5 to 9 weeks of age. Group 4-solithromycin 10 mg/kg. Eight NASH mice are orally administered vehicle supplemented with solithromycin at a dose of 10 mg/kg twice daily (20 mg/kg/day) from 5 to 9 weeks of age. Group 5-solithromycin 25 mg/kg. Eight NASH mice are orally administered vehicle supplemented with solithromycin at a dose of 25 mg/kg twice daily (50 mg/kg/day) from 5 to 9 weeks of age. Group 6-solithromycin 50 mg/kg. Eight NASH mice are orally administered vehicle supplemented with solithromycin at a dose of 50 mg/kg once daily (50 mg/kg/day) from 5 to 9 weeks of age.
compound,measurement,setting,value
CC[C@H]1OC(=O)[C@@](C)(F)C(=O)[C@H](C)[C@@H](O[C@@H]2O[C@H](C)C[C@H](N(C)C)[C@H]2O)[C@](C)(OC)C[C@@H](C)C(=O)[C@H](C)[C@H]2N(CCCCn3cc(-c4cccc(N)c4)nn3)C(=O)O[C@]12C [solithromycin],AUC0-t Geometric Mean Ratio (%) (test/reference),[1]; Mild versus Control,117.44%
same,AUC0-tau Geometric Mean Ratio (%) (test/reference),[1]; Mild versus Control,75.30%
same,Cmax Geometric Mean Ratio (%) (test/reference),[1]; Mild versus Control,121.08%
same,AUC0-t Geometric Mean Ratio (%) (test/reference),[1]; Moderate versus Control,117.83%
same,AUC0-tau Geometric Mean Ratio (%) (test/reference),[1]; Moderate versus Control,71.58%
same,Cmax Geometric Mean Ratio (%) (test/reference),[1]; Moderate versus Control,105.36%
same,AUC0-t Geometric Mean Ratio (%) (test/reference),[1]; Severe versus Control,109.95%
same,AUC0-tau Geometric Mean Ratio (%) (test/reference),[1]; Severe versus Control,58.86%
same,Cmax Geometric Mean Ratio (%) (test/reference),[1]; Severe versus Control,77.69%
same,Accumulation on Day 5,[1]; any of the hepatic impaired cohorts,No accumulation
same,AUC(0-t),"[1]; healthy control subjects, read-out: AUC0-t (Reference Group)",7550 ng·h/mL
same,AUC,"[1]; healthy control subjects, read-out: AUC0-tau (Reference Group)",10500 ng·h/mL
same,Cmax,"[1]; healthy control subjects, read-out: Cmax (Reference Group)",649 ng/mL
same,Cmax,"[1]; mild hepatic impairment, 800 mg Day 1, 400 mg Days 2-5, read-out: Cmax (Test Group)",786 ng/mL
same,AUC(0-t),"[1]; mild hepatic impairment, read-out: AUC0-t (Test Group)",8870 ng·h/mL
same,AUC,"[1]; mild hepatic impairment, read-out: AUC0-tau (Test Group)",7900 ng·h/mL
same,AUC(0-t),"[1]; moderate hepatic impairment, read-out: AUC0-t (Test Group)",8900 ng·h/mL
same,AUC,"[1]; moderate hepatic impairment, read-out: AUC0-tau (Test Group)",7510 ng·h/mL
same,Cmax,"[1]; moderate hepatic impairment, read-out: Cmax (Test Group)",684 ng/mL
same,AUC(0-t),"[1]; severe hepatic impairment, read-out: AUC0-t (Test Group)",8310 ng·h/mL
same,AUC,"[1]; severe hepatic impairment, read-out: AUC0-tau (Test Group)",6180 ng·h/mL
same,Cmax,"[1]; severe hepatic impairment, read-out: Cmax (Test Group)",504 ng/mL
same,half-life,[1]; control,8.9 h
same,half-life,[1]; mild hepatic impairment,10.2 h
same,half-life,[1]; moderate hepatic impairment,10.4 h
same,half-life,[1]; severe hepatic impairment,15.7 h
same,Mean plasma protein binding percentage at Day 5 Cmax,[1]; mild or moderate hepatic impairment vs control,not significantly affected
same,Mean plasma protein binding percentage at Day 5 Cmax,[1]; severe cohort vs control,slightly lower
same,Fraction of orally administered dose absorbed,[2],approximately 78%
same,Fraction of orally administered dose metabolized and excreted by the liver,[2],~70%
same,Unchanged drug excreted in the feces,[2],Less than 15%
same,F4/80-positive area (%) a measure of macrophage density,STAM mice; 5 mg/kg,10.83 ± 1.38%
same,F4/80-positive area (%) a measure of macrophage density,STAM mice; 10 mg/kg,9.33 ± 1.31%
same,F4/80-positive area (%) a measure of macrophage density,STAM mice; 25 mg/kg,10.63 ± 2.11%
same,Area of F4/80-positive macrophages compared to vehicle group,"STAM mice; STAM mice, Groups 3-6",no significant differences
same,Gr-1 positive cells (neutrophil infiltration) in liver compared to vehicle group,"STAM mice; STAM mice, all doses",decreased; also recorded: reduced
same,CK-18 immunostaining compared to vehicle group,"STAM mice; STAM mice, any doses",no obvious changes
